Reference: US20230141563A1, “METHODS AND COMPOSITIONS FOR ATTENUATING ANTI-VIRAL TRANSFER VECTOR IGM RESPONSES” (Selecta Biosciences, Inc., priority 2021, published 2023)

Tested on: AAV IgG
Test: Serum AAV IgG (ELISA) in AAV-SEAP-injected mice
Type: in vivo, C57BL/6 female mice
Details: Example 12; SVP[Rapa] 100 μg; ibrutinib 500 μg
Method: At time indicated (days 5, 9, 12, 16, 21, 42, 47, 51, 55, 162,167,174, 195 and 210) mice were bled, serum separated from whole blood and stored at −20±5° C. until analysis. Then IgM antibodies to AAV was measured in ELISA: 96-well plates coated o/n with the AAV, washed and blocked on the following day, then diluted serum samples (1:40) added to the plate and incubated; plates washed, donkey anti-mouse IgM specific-HRP added and after another incubation and wash, the presence of IgM antibodies to AAV detected by adding TMB substrate and measuring at an absorbance of 450 nm with a reference wavelength of 570 nm (the intensity of the signal presented as top optical density, OD, is directly proportional to the quantity of IgM antibody in the sample).
Same serum samples from Example 3 were also tested for AAV IgG measured by ELISA along the same lines as IgM with the exception of goat anti-mouse IgG specific-HRP being used.

C=CC(=O)N1CCC[C@@H](n2nc(-c3ccc(Oc4ccccc4)cc3)c3c(N)ncnc32)C1 [ibrutinib]
animals AAV IgG-converting by d22: 10/10
